# Laboratory results: BindingDB's records for doi:10.1021/jm00058a012 (University of Arizona, 1993)
# Bridge positions count the residues as written; N and C are the ends. Square brackets hold non-standard residues; d marks the D form. Peptide text beside a SMILES is read from it. Pen = CC(C)(S)[C@H](N)C(=O)O
# Experiment: Inhibition of [3H]DPDPE binding to delta opioid receptor of guinea pig brain homogenate
row,Structure (SMILES),IC50
1,CC[C@H](C)[C@H](NC(=O)[C@H](CCCN=C(N)N)NC(=O)[C@H](CCCN=C(N)N)NC(=O)[C@H](CC(C)C)NC(=O)[C@H](Cc1ccccc1)NC(=O)CNC(=O)CNC(=O)[C@@H](N)Cc1ccc(O)cc1)C(=O)N[C@@H](CCCN=C(N)N)C(=O)N1CCC[C@H]1C(=O)N[C@@H](CCCCN)C(=O)N[C@@H](CC(C)C)C(=O)N[C@@H](CCCCN)C(=O)O [Dynorphin A (1-13)],4.1 nM
2,CC[C@H](C)[C@@H]1NC(=O)[C@H](CCCNC(=N)N)NC(=O)[C@H](CCCNC(=N)N)NC(=O)[C@@H](NC(=O)[C@H](Cc2ccccc2)NC(=O)CNC(=O)CNC(=O)[C@@H](N)Cc2ccccc2)CSSC[C@@H](C(N)=O)NC(=O)[C@@H]2CCCN2C(=O)[C@H](CCCNC(=N)N)NC1=O [Phe-Gly-Gly-Phe-c(Cys-Arg-Arg-Ile-Arg-Pro-Cys)] (H-FGGFCRRIRPC-NH2; disulfide 5-11),389 nM
3,CC[C@H](C)[C@@H]1NC(=O)[C@H](CCCN=C(N)N)NC(=O)[C@H](CCCN=C(N)N)NC(=O)[C@@H](NC(=O)[C@H](Cc2ccccc2)NC(=O)CNC(=O)[C@@H](C)NC(=O)[C@@H](N)Cc2ccc(O)cc2)CSSC[C@@H](C(N)=O)NC(=O)[C@@H]2CCCN2C(=O)[C@H](CCCN=C(N)N)NC1=O [Tyr-(D-ala)-Gly-Phe-c(Cys-Arg-Arg-Ile-Arg-Pro-Cys)],107 nM
4,CC[C@H](C)[C@@H]1NC(=O)[C@H](CCCN=C(N)N)NC(=O)[C@H](CCCN=C(N)N)NC(=O)[C@@H](NC(=O)[C@@H]2Cc3ccccc3CN2C(=O)CNC(=O)CNC(=O)[C@@H](N)Cc2ccc(O)cc2)CSSC[C@@H](C(=O)O)NC(=O)[C@@H]2CCCN2C(=O)[C@H](CCCN=C(N)N)NC1=O [Tyr-Gly-Gly-(L-Tic)-c(Cys-Arg-Arg-Ile-Arg-Pro-Cys)],181 nM
5,CC(C)C[C@H](NC(=O)[C@H](Cc1ccccc1)NC(=O)CNC(=O)CNC(=O)[C@@H](N)Cc1ccc(O)cc1)C(=O)N[C@@H](CCCNC(=N)N)C(=O)N[C@@H](CCCNC(=N)N)C(=O)N[C@@H]1CSSC[C@H](C(=O)N[C@@H](CCCCN)C(N)=O)NC(=O)[C@H](CCCCN)NC(=O)[C@@H]2CCCN2C(=O)[C@H](CCCNC(=N)N)NC1=O [Tyr-Gly-Gly-Phe-Leu-Arg-Arg-c((D-Cys)-Arg-Pro-Lys-(D-Cys))-Lys],6.5 nM
6,CC(C)C[C@H](NC(=O)[C@H](Cc1ccccc1)NC(=O)CNC(=O)CNC(=O)[C@@H](N)Cc1ccc(O)cc1)C(=O)N[C@@H](CCCN=C(N)N)C(=O)N[C@@H](CCCN=C(N)N)C(=O)N[C@H]1CSSC[C@H](C(N)=O)NC(=O)[C@H](CC(C)C)NC(=O)[C@H](CCCCN)NC(=O)[C@@H]2CCCN2C(=O)[C@H](CCCN=C(N)N)NC1=O [Tyr-Gly-Gly-Phe-Leu-Arg-Arg-c(Cys-Arg-Pro-Lys-Leu-Cys)],1.9 nM
7,CC[C@H](C)[C@@H]1NC(=O)[C@H](CCCN=C(N)N)NC(=O)[C@H](CCCN=C(N)N)NC(=O)[C@@H](NC(=O)[C@H](Cc2ccccc2)NC(=O)CNC(=O)CNC(=O)[C@@H](N)Cc2ccc(O)cc2)C(C)(C)SSC[C@@H](C(N)=O)NC(=O)[C@@H]2CCCN2C(=O)[C@H](CCCN=C(N)N)NC1=O [Tyr-Gly-Gly-Phe-c((L-Pen)-Arg-Arg-Ile-Arg-Pro-Cys)] (H-YGGF[Pen]RRIRPC-NH2; disulfide 5-11),86 nM
8,CC[C@H](C)[C@@H]1NC(=O)[C@H](CCCNC(=N)N)NC(=O)[C@H](CCCNC(=N)N)NC(=O)[C@@H](NC(=O)[C@H](Cc2ccccc2)NC(=O)CNC(=O)CNC(=O)[C@@H](N)Cc2ccc(O)cc2)CSSC[C@@H](C(N)=O)NC(=O)[C@H](CC(C)C)NC(=O)[C@H](CCCCN)NC(=O)[C@H]2CCCN2C(=O)[C@H](CCCNC(=N)N)NC1=O [Tyr-Gly-Gly-Phe-c(Cys-Arg-Arg-Ile-Arg-(D-Pro)-Lys-Leu-Cys)],9.6 nM
9,CC[C@H](C)[C@@H]1NC(=O)[C@H](CCCN=C(N)N)NC(=O)[C@H](CCCN=C(N)N)NC(=O)[C@@H](NC(=O)[C@H](Cc2ccccc2)NC(=O)CNC(=O)CNC(=O)[C@@H](N)Cc2ccc(O)cc2)CSSC[C@@H](C(=O)N[C@@H](CCCCN)C(N)=O)NC(=O)[C@H](CCCN=C(N)N)NC1=O [Tyr-Gly-Gly-Phe-c(Cys-Arg-Arg-Ile-Arg-Cys)-lys] (H-YGGFCRRIRCK-NH2; disulfide 5-10),83 nM
10,CC[C@H](C)[C@@H]1NC(=O)[C@H](CCCN=C(N)N)NC(=O)[C@H](CCCN=C(N)N)NC(=O)[C@@H](NC(=O)[C@H](Cc2ccccc2)NC(=O)CNC(=O)CNC(=O)[C@@H](N)Cc2ccc(O)cc2)CSSC[C@@H](C(=O)N2CCC[C@H]2C(=O)N[C@@H](CCCCN)C(N)=O)NC1=O [Tyr-Gly-Gly-Phe-c(Cys-Arg-Arg-Ile-Cys)-Pro-lys] (H-YGGFCRRICPK-NH2; disulfide 5-9),31 nM
11,CC[C@H](C)[C@@H]1NC(=O)[C@H](CCCNC(=N)N)NC(=O)[C@@H](NC(=O)[C@H](CC(C)C)NC(=O)[C@H](Cc2ccccc2)NC(=O)CNC(=O)CNC(=O)[C@@H](N)Cc2ccc(O)cc2)CSSC[C@@H](C(=O)N[C@@H](CCCCN)C(N)=O)NC(=O)[C@H](CCCNC(=N)N)NC1=O [Tyr-Gly-Gly-Phe-leu-c(Cys-Arg-Ile-Arg-Cys)-lys] (H-YGGFLCRIRCK-NH2; disulfide 6-10),0.475 nM

# Experiment: as above
# Remark: another data set of the same source
row,Structure (SMILES),IC50
1,CC[C@H](C)[C@@H]1NC(=O)[C@H](CCCN=C(N)N)NC(=O)[C@H](CCCN=C(N)N)NC(=O)[C@@H](NC(=O)[C@H](Cc2ccccc2)NC(=O)CNC(=O)CNC(=O)[C@@H](N)Cc2ccc(O)cc2)CSSC[C@@H](C(=O)N[C@@H](CCCN=C(N)N)C(=O)N[C@@H](CCCCN)C(N)=O)NC1=O [Tyr-Gly-Gly-Phe-c(Cys-Arg-Arg-Ile-Cys)-Arg-lys] (H-YGGFCRRICRK-NH2; disulfide 5-9),18 nM
